“Also recorded” adds a separate entry of the source.

The nature of this assay: Fuchsine staining of free aldehyde groups on fixed, detoxified tissue (observed colour). On the set-up: species or system bovine. The note with it: FIG. 1 samples; detoxified at room temperature about 24 hours; homocysteic acid 1.00% w/v or taurine 0.70% w/v in phosphate buffer pH 7; weaker staining = fewer free aldehyde groups.

Method: The efficacy of the method described herein, and therefore the occurrence of the reaction between the amino groups of the detoxifying molecule and the aldehyde groups present on the fixed tissue, is evaluated by staining of the aldehyde groups remaining free. The greater the staining intensity, the more numerous are the free aldehyde groups and, on the contrary, the weaker (or absent) the staining, the less numerous (or absent) are the free aldehyde groups present on the detoxified tissue.
The detoxification step was conducted at room temperature (20° C.), 40° C. and 50° C., for a period of time of 24 hours, using about 200 ml of solution for each tissue.
a second control sample (FIG. 1B) fixed with glutaraldehyde and detoxified with a solution containing homocysteic acid at a concentration (w/v) of 1.00% in phosphate buffer pH 7;
The tissue samples were immersed in the detoxifying solutions for about 24 hours at room temperature with gentle agitation.
The samples were immersed in the detoxifying solution for about 24 hours with gentle agitation both at room temperature and at 40° C.; the fourth sample detoxified at 50° C. was maintained immersed for 7-8 hours with gentle agitation.
Tissue staining to detect free aldehyde groups uses an acidic solution of rosaniline hydrochloride (fuchsine). […]

`N[C@@H](CCS(=O)(=O)O)C(=O)O` [homocysteic acid]: the Staining observed entry is “less than that of the control sample; also recorded: Violet”.

Source of the values: US20160158415A1, “METHOD FOR DETOXIFYING A BIOLOGICAL TISSUE” (Sorin Group Italia S.r.l., priority 2010, published 2016).
